# Reference: patent US20040242694A1, “Remedial agent for cardiac failure” (priority 2001, published 2004)
# Key:
# [1] = test system: animal test mode of ventricular failure; settings: J Pharmacol Exp Ther 291(2) 799-811 (1999); Circ Res 85(4) 364-376 (1999); cited from earlier work
# [2] = test system: Dahl's salt-sensitive rat; experiment: P-V curve of removed hearts under perfuse by Langendorff's method; type: ex vivo; settings: compared with the control group; Langendorff perfusion
# Experimental: In the above model of cardiac failure using Dahl's salt-sensitive rat, internal pressure and volume of left ventricle of hearts removed from 11, 15, and 17 weeks rats were measured under perfuse by Langendorff's method.
# mice = experiment: Toxicity, oral administration to mice; type: in vivo
# Experimental: It was considered that the toxicities of the compounds in the present invention could be very low and safe to use as a medicine. For example, the lowest lethal dose in oral administration of compound (II) to mice was 2000 mg/kg.
compound,measurement,setting,value
CC(C)[C@H](NS(=O)(=O)c1ccc(-c2ccc(Br)cc2)cc1)C(=O)O [PD166793],effect on animal test model of ventricular failure,[1],effective
"CCOCOC[C@H](C[C@H](C)C(=O)NO)NC(=O)c1ccc(Oc2ccccc2)cc1 [compound (II), N-hydroxy-5-ethoxymethyloxy-2(S)-methyl-4(S)-(4-phenoxybenzoyl)aminopentanamide]",P-V curve (internal pressure and volume of left ventricle),[2],shifts to the left side
same,lowest lethal dose,mice,2000 mg/kg
